Results as given in ChEMBL document CHEMBL1157129, “Synthesis and antiprotozoal activity of 2,5-bis[amidinoaryl]thiazoles” (Bioorg Med Chem, 2010).
Calls of active or inactive are those of the source. The rule behind the calls is not given here.

What was measured:
[1] = tested on: Trypanosoma brucei rhodesiense; assay: Antitrypanosomal activity against Trypanosoma brucei rhodesiense STIB900 in infected mouse model assessed as host survival time at 25 mg/kg, po for 4 days; assay type: functional
[2] = tested on: Trypanosoma brucei rhodesiense; assay: Antitrypanosomal activity against Trypanosoma brucei rhodesiense STIB900 in infected mouse model assessed as parasitemia cure in host at 25 mg/kg, po for 4 days; assay type: functional, organism-based; parameters: dose 25 mg/kg
[3] = tested on: Trypanosoma brucei rhodesiense; assay: Antitrypanosomal activity against Trypanosoma brucei rhodesiense STIB900 in infected mouse model assessed as parasitemia cure in host at 5 mg/kg, ip for 4 days; assay type: functional, organism-based; parameters: dose 5 mg/kg
L6 = assay: Cytotoxicity against rat L6 cells; assay type: cell-based
Plasmodium falciparum = assay: Antiplasmodial activity against Plasmodium falciparum K1; assay type: functional, organism-based
[4] = tested on: Trypanosoma brucei rhodesiense; assay: Antitrypanosomal activity against Trypanosoma brucei rhodesiense STIB900 in infected mouse model assessed as host survival time at 5 mg/kg, ip for 4 days; assay type: functional; conditions: route intraperitoneal
[5] = tested on: Trypanosoma brucei rhodesiense; assay: Antitrypanosomal activity against Trypanosoma brucei rhodesiense STIB900; assay type: functional, organism-based

CO/N=C(\N)c1ccc(-c2cnc(-c3ccc(/C(N)=N/OC)nc3)s2)cc1.Cl was tested, and the Survival [1] was 42.8 days and the Activity [2] was “inactive”.

For CO/N=C(/N)c1ccc(-c2cnc(-c3ccc(/C(N)=N\OC)cc3)s2)cc1.Cl.Cl, the Survival [1] was 41 days and the Activity [2] was “inactive”.

For Cl.Cl.N=C(N)c1ccc(-c2ncc(-c3ccc(C(=N)N)nc3)s2)nc1, the Activity [3] was “inactive”, the IC50 (L6) was 37400 nM and the IC50 (Plasmodium falciparum) was 13 nM. The Survival [4] was 29.25 days and the IC50 [5] was 38 nM.

For N=C(N)c1ccc(OCCCCCOc2ccc(C(=N)N)cc2)cc1 [PENTAMIDINE], the Survival [4] was 45 days.

In the case of N=C(N)c1ccc(-c2ccc(-c3ccc(C(=N)N)cn3)o2)cc1, the Survival [4] is reported as >54.5 days.

In the case of CO/N=C(\N)c1ccc(-c2cnc(-c3ccc(/C(N)=N\OC)cn3)s2)cc1.Cl.Cl, the Survival [1] is reported as 35 days and the Activity [2] is reported as “inactive”.

Cl.Cl.N/C(=N\O)c1ccc(-c2ncc(-c3ccc(/C(N)=N\O)nc3)s2)cc1 was tested, and the Survival [1] was 36.8 days and the Activity [2] was “inactive”.

Cl.Cl.N=C(N)c1ccc(-c2cnc(-c3ccc(C(=N)N)cc3)s2)cc1 was tested, and the IC50 (Plasmodium falciparum) was 2 nM, the Survival [4] was >44.5 days and the IC50 [5] was 4 nM.

Cl.Cl.N=C(N)c1ccc(-c2cnc(-c3ccc(C(=N)N)nc3)s2)cc1 was tested, and the Activity [3] was “inactive”, the IC50 (L6) was 1800 nM and the IC50 (Plasmodium falciparum) was 2.5 nM. The Survival [4] was 44.5 days and the IC50 [5] was 4 nM.

For Cl.Cl.N/C(=N\O)c1ccc(-c2cnc(-c3ccc(/C(N)=N\O)cn3)s2)nc1, the Survival [1] was 9 days and the Activity [2] was “inactive”.

With Cl.Cl.N=C(N)c1ccc(-c2cnc(-c3ccc(C(=N)N)cn3)s2)cc1 the Activity [3] was “inactive”, the IC50 (L6) was 102000 nM and the IC50 (Plasmodium falciparum) was 12.5 nM. For the same molecule, the Survival [4] was 30.25 days and the IC50 [5] was 16 nM.

In the case of Cl.Cl.N=C(N)c1ccc(-c2cnc(-c3ccc(C(=N)N)nc3)s2)cn1, the Activity [3] is reported as “inactive”, the IC50 (L6) is reported as 1400 nM and the IC50 (Plasmodium falciparum) is reported as 1.1 nM. The Survival [4] was 50.5 days and the IC50 [5] was 6 nM.

With CO/N=C(\N)c1ccc(-c2cnc(-c3ccc(/C(N)=N\OC)cn3)s2)nc1.Cl.Cl the Survival [1] was 9 days and the Activity [2] was “inactive”.

For CO/N=C(\N)c1ccc(-c2cnc(-c3ccc(/C(N)=N\OC)nc3)s2)cn1.Cl.Cl, the Survival [1] was 9 days.

With Cl.Cl.N=C(N)c1ccc(-c2ncc(-c3ccc(C(=N)N)nc3)s2)cc1 the Activity [3] was “inactive”, the IC50 (L6) was 40200 nM and the IC50 (Plasmodium falciparum) was 2.4 nM. For the same molecule, the Survival [4] was > 36 days and the IC50 [5] was 6 nM.

Cl.Cl.N=C(N)c1ccc(-c2cnc(-c3ccc(C(=N)N)cn3)s2)nc1 was tested, and the Activity [3] was “inactive”, the IC50 (L6) was > 195000 nM and the IC50 (Plasmodium falciparum) was 24.6 nM. The Survival [4] was 21.5 days and the IC50 [5] was 176 nM.

With Cl.Cl.N/C(=N/O)c1ccc(-c2cnc(-c3ccc(/C(N)=N\O)cc3)s2)cc1 the Survival [1] was 35 days and the Activity [2] was “inactive”.

With Cl.Cl.N/C(=N\O)c1ccc(-c2cnc(-c3ccc(/C(N)=N/O)nc3)s2)cc1 the Survival [1] was 37.5 days and the Activity [2] was “inactive”.

CO/N=C(\N)c1ccc(-c2ccc(-c3ccc(/C(N)=N/OC)cn3)o2)cc1 was tested, and the Activity [3] was “Active”, the Survival [1] was >60 days and the Survival [4] was >60 days.

With Cl.Cl.N/C(=N\O)c1ccc(-c2cnc(-c3ccc(/C(N)=N\O)nc3)s2)cn1 the Survival [1] was 24 days.

In the case of N=C(N)c1ccc(-c2ccc(-c3ccc(C(=N)N)cc3)s2)cc1, the IC50 (Plasmodium falciparum) is reported as 13.8 nM, the Survival [4] is reported as >48.75 days and the IC50 [5] is reported as 3 nM.

For N=C(N)c1ccc(-c2ccc(-c3ccc(C(=N)N)cc3)o2)cc1 [FURAMIDINE], the IC50 (L6) was 6500 nM and the Survival [4] was >46 days.

For Cl.Cl.N/C(=N\O)c1ccc(-c2cnc(-c3ccc(/C(N)=N\O)cn3)s2)cc1, the Survival [1] was 24 days and the Activity [2] was “inactive”.

In the case of CONC(=N)c1ccc(-c2ccc(-c3ccc(C(=N)NOC)cc3)o2)cc1 [PAFURAMIDINE], the Activity [3] is reported as “inactive”, the Survival [1] is reported as >60 days and the Activity [2] is reported as “Active”. For the same molecule, the Survival [4] was 30 days.
